Reference: article PMC8903829 (eLife, 2022)

What was measured:
Format in all cases: cell-based
[1] = biological target: T1, hNaV1.1 (Homo sapiens, UniProt P35498); test: Qube 384 automated patch-clamp, inactivated-state inhibition
T1 construct: expression vector containing the full-length cDNA coding for specific human and mouse sodium channel α-subunit; expressed in transfected cells

[2] = biological target: T2, hNaV1.5 (Homo sapiens, UniProt Q14524); test: as above
T2 construct: expression vector containing the full-length cDNA coding for specific human and mouse sodium channel α-subunit; expressed in transfected cells
T2 sequence (Q14524 whole entry): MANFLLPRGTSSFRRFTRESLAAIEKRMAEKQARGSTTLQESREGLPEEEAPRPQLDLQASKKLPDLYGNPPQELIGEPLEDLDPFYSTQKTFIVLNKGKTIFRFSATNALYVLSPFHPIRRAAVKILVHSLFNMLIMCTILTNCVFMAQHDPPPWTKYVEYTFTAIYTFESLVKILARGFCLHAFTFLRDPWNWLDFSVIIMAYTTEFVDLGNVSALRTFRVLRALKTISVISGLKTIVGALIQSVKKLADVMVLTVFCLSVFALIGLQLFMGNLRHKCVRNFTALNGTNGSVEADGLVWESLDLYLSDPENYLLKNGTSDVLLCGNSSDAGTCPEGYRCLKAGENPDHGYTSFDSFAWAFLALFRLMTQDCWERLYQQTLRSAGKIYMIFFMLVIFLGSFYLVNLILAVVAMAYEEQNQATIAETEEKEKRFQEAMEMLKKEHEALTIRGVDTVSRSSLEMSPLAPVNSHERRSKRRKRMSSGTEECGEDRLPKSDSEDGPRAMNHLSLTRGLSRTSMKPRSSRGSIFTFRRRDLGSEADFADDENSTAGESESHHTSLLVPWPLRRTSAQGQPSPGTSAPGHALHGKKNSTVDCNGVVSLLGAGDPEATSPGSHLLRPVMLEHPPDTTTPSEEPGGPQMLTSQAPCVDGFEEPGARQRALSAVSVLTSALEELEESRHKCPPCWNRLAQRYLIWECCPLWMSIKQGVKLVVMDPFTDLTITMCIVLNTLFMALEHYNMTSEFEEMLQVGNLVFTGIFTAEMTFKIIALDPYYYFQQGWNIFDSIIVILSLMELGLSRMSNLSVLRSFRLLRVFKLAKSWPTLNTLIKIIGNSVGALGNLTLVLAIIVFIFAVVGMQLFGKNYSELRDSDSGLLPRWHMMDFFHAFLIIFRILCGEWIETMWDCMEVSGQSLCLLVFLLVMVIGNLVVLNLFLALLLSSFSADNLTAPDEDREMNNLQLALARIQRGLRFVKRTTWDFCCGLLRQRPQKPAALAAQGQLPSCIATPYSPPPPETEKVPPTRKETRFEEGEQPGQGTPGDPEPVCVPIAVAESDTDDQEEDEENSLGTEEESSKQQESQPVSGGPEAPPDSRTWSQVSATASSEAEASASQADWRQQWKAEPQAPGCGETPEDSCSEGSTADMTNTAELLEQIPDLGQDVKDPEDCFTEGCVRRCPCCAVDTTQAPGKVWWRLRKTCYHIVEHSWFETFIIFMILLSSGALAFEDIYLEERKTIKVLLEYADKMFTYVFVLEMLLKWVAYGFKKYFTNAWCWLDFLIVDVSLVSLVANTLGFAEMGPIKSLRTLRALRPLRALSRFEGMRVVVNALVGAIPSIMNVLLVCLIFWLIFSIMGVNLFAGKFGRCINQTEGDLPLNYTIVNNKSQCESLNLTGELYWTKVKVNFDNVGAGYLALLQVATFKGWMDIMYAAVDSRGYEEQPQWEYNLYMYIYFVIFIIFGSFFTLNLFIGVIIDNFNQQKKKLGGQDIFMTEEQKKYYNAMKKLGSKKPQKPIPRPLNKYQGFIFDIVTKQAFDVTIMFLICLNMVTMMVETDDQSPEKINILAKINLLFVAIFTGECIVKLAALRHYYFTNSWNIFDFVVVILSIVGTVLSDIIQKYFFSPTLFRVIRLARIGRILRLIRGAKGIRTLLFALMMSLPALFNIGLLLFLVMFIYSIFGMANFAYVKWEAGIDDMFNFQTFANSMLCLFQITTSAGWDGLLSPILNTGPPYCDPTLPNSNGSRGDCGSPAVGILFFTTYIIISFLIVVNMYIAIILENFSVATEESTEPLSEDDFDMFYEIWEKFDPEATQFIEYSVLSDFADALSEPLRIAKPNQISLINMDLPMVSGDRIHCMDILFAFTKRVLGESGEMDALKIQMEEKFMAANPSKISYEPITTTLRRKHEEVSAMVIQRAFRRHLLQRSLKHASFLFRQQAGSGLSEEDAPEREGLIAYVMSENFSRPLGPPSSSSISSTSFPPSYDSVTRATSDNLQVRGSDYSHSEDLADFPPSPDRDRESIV

[3] = biological target: T3, hNaV1.6 N1877S (Homo sapiens, UniProt Q9UQD0, N1877S); test: Automated patch-clamp, patient-identified variant in Expi293F cells
T3 construct: expression vector containing the full-length cDNA coding for specific human and mouse sodium channel α-subunit; expressed in transfected cells; host or cells: Expi293F (transient, tetracycline-induced, pcDNA4/TO)
T3 sequence (Q9UQD0 whole entry N1877S): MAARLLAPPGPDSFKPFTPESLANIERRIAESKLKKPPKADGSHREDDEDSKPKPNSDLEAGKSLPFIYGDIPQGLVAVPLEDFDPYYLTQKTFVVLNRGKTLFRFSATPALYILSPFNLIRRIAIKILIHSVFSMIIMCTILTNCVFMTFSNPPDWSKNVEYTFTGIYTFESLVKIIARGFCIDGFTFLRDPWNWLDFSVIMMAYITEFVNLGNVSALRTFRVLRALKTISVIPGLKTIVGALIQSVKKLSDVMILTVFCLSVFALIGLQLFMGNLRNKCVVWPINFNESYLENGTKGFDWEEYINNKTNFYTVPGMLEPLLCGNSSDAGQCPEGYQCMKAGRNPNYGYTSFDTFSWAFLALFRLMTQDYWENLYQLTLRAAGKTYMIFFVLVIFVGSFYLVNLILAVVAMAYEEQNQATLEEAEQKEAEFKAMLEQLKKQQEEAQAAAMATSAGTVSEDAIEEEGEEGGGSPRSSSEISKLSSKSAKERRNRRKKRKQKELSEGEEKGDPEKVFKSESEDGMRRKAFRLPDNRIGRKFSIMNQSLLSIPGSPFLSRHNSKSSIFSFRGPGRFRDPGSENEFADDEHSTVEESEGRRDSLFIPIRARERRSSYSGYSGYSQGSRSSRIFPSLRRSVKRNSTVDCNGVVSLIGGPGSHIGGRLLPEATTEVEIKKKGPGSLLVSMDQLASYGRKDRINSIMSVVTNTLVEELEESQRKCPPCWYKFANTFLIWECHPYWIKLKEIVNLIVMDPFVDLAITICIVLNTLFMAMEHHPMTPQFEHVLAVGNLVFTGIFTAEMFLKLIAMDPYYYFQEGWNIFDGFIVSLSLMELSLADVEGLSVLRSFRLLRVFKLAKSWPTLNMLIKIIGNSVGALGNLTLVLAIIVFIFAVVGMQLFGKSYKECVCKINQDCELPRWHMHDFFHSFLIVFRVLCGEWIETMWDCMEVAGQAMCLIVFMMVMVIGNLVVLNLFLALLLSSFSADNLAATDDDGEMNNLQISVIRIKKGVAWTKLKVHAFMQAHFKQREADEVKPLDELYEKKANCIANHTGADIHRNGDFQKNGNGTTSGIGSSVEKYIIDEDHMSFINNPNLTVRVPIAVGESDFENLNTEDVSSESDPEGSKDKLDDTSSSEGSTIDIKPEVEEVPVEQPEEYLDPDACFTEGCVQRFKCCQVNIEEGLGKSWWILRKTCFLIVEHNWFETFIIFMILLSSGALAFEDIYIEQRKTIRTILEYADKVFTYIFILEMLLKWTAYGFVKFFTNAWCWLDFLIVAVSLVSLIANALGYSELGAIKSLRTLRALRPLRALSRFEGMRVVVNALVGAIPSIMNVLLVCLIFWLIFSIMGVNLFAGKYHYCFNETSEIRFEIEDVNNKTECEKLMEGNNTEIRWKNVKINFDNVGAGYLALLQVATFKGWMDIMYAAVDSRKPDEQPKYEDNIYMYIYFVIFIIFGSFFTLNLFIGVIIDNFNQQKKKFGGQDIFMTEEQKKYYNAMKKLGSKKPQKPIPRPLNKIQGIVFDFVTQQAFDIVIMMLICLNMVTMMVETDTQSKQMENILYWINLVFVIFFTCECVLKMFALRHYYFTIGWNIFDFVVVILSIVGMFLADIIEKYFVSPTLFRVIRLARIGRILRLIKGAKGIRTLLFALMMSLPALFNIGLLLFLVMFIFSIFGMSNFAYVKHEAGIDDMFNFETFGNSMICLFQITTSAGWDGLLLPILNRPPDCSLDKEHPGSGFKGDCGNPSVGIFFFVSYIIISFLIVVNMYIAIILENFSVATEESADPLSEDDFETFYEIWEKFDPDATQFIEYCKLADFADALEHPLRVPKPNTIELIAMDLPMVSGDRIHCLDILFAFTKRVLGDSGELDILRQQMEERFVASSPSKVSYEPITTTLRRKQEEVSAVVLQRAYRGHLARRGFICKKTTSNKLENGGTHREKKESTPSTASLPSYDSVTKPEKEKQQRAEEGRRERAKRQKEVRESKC
Method: For studies of mutant channels, cDNA plasmids in pcDNA4/TO Mammalian Expression Vector were transiently transfected into Expi293F cells stably expressing human FHF2b and human SCN1B subunit (polyclonal) background using ExpiFectamine 293 Transfection Kits (Gibco,Thermo Fisher Scientific CAT #: A14524). Induction was achieved using Tetracycline (Sigma Aldrich). Transfected cells were used in automated patch-clamp experiments 24 hours postinduction.
Inorm(CPD)=(ICPD−Icontrol)/(ITTX−Icontrol).

Cc1cc(S(=O)(=O)Nc2cscn2)c(F)cc1N(C)[C@H]1CCN(Cc2ccccc2)C1 [NBI-921352]
hNav1.1 current in (352)/(Vehicle), mean ([1]; -4 Log M): 0.68
hNav1.1 current in (352)/(Vehicle), mean ([1]; -4.30103 Log M): 0.57
hNav1.1 current in (352)/(Vehicle), mean ([1]; -4.47713 Log M): 0.44
hNav1.1 current in (352)/(Vehicle), mean ([1]; -4.77814 Log M): 0.3
hNav1.1 current in (352)/(Vehicle), mean ([1]; -4.95425 Log M): 0.25
hNav1.1 current in (352)/(Vehicle), mean ([1]; -5.25524 Log M): 0.16
hNav1.1 current in (352)/(Vehicle), mean ([1]; -5.43133 Log M): 0.12
hNav1.1 current in (352)/(Vehicle), mean ([1]; -5.73236 Log M): 0.07
hNav1.1 current in (352)/(Vehicle), mean ([1]; -5.90833 Log M): 0.07
hNav1.1 current in (352)/(Vehicle), mean ([1]; -6.20971 Log M): 0.04
hNav1.1 current in (352)/(Vehicle), mean ([1]; -6.3851 Log M): 0.03
hNav1.1 current in (352)/(Vehicle), mean ([1]; -6.68613 Log M): 0.05
hNav1.1 current in (352)/(Vehicle), mean ([1]; -6.86328 Log M): 0.01
hNav1.1 current in (352)/(Vehicle), mean ([1]; -7.16115 Log M): 0.04
hNav1.1 current in (352)/(Vehicle), mean ([1]; -7.33724 Log M): 0
hNav1.1 current in (352)/(Vehicle), mean ([1]; -7.63827 Log M): 0.01
inhibition at 30 µM ([2]; 30 µM, NaV1.5, read-out: inhibition at the highest concentration tested): < 50%
hNaV1.5 current (352)/(Vehicle), mean ([2]; -4.52288 Log M): 0.24
hNaV1.5 current (352)/(Vehicle), mean ([2]; -5 Log M): 0.1
hNaV1.5 current (352)/(Vehicle), mean ([2]; -5.47716 Log M): 0.02
hNaV1.5 current (352)/(Vehicle), mean ([2]; -5.95429 Log M): 0.05
hNaV1.5 current (352)/(Vehicle), mean ([2]; -6.91009 Log M): 0.04
hNaV1.5 current (352)/(Vehicle), mean ([2]; -7.38722 Log M): -0.02
hNaV1.5 current (352)/(Vehicle), mean ([2]; -7.85387 Log M): 0.03
h1.6-N1877S 145756 norm, Mean ([3]; -5 LogM): 0.94
h1.6-N1877S 145756 norm, Mean ([3]; -5.47716 LogM): 0.93
h1.6-N1877S 145756 norm, Mean ([3]; -5.95429 LogM): 0.88
h1.6-N1877S 145756 norm, Mean ([3]; -6.4318 LogM): 0.84
h1.6-N1877S 145756 norm, Mean ([3]; -6.91009 LogM): 0.68
h1.6-N1877S 145756 norm, Mean ([3]; -7.38722 LogM): 0.53
h1.6-N1877S 145756 norm, Mean ([3]; -7.85387 LogM): 0.27
h1.6-N1877S 145756 norm, Mean ([3]; -8.33 LogM): 0.1
